“And” between values parts separate entries of the source, which are not always exact repeats. Identical values can stand only once.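 1) Cells in 96-well plates. 2) Compound, 48 h, 5 concentrations. 3) Linear interpolation between surrounding doses. 4) Unreached endpoint = highest concentration. GI50: concentration for 50% inhibition of growth. TGI is the concentration that stops growth completely.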
Assays:
Test in all cases: DTP human tumour cell line panel, 48 h
COLO 205 colon = system: COLO 205 colon
HS 578T breast = system: HS 578T breast
M14 melanoma = system: M14 melanoma
MALME-3M melanoma = system: MALME-3M melanoma
NCI-H226 lung = system: NCI-H226 lung
OVCAR-4 ovarian = system: OVCAR-4 ovarian
OVCAR-8 ovarian = system: OVCAR-8 ovarian
SF-268 CNS = system: SF-268 CNS
SF-539 CNS = system: SF-539 CNS
U251 CNS = system: U251 CNS

| SMILES | GI50 (COLO 205 colon) | TGI (COLO 205 colon) | GI50 (HS 578T breast) | TGI (HS 578T breast) | GI50 (M14 melanoma) | TGI (M14 melanoma) | GI50 (MALME-3M melanoma) | TGI (MALME-3M melanoma) [µM] | GI50 (NCI-H226 lung) | TGI (NCI-H226 lung) | GI50 (OVCAR-4 ovarian) | TGI (OVCAR-4 ovarian) | GI50 (OVCAR-8 ovarian) | TGI (OVCAR-8 ovarian) | GI50 (SF-268 CNS) | TGI (SF-268 CNS) | GI50 (SF-539 CNS) | TGI (SF-539 CNS) | GI50 (U251 CNS) | TGI (U251 CNS) |
| --- | --- | --- | --- | --- | --- | --- | --- | --- | --- | --- | --- | --- | --- | --- | --- | --- | --- | --- | --- | --- |
| O=C(c1ccccc1O)c1[nH]c(Cl)c(Cl)c1-n1c(C(=O)c2ccccc2O)cc(Cl)c1Cl | 0.703 µM and 0.757 µM | 2.47 µM and 3.17 µM | 0.849 µM and 0.623 µM | 10.9 µM and 9.66 µM | 1.46 µM and 1.44 µM | 5.9 µM and 7.76 µM | 1.37 µM | 5.18 | 1.63 µM and 0.706 µM | 14.9 µM and 5.97 µM | 2.41 µM and 1.86 µM | 19.4 µM and 10.7 µM | 0.643 µM and 0.558 µM | 10.9 µM and 15.8 µM | 0.677 µM and 0.546 µM | 13.4 µM and 14.6 µM | 1.67 µM and 1.74 µM | 10.1 µM and 10.9 µM | 1.29 µM and 1.42 µM | 12.3 µM and 13.6 µM |
| Cc1cc(O)cc(C)c1/C=C/c1cncc(C(=O)OC(C)(C)C)c1 | > 25 µM | > 25 µM | 7.64 µM | 24.7 µM | > 24 µM | > 25 µM | > 16.6 µM | > 25 | > 25 µM | > 25 µM | 12.2 µM | > 25 µM | 18 µM | > 25 µM | 20.7 µM | > 25 µM | > 18.5 µM | > 25 µM | 14.9 µM | > 25 µM |
| COc1cc2c(cc1O)C(c1cc(O)c(O)c(OC)c1)C(O)(C(=O)O)C(CO)C2O (stereo unspecified) | – | > 100 µM | – | > 100 µM | – | > 100 µM | – | > 100 | – | > 100 µM | – | > 100 µM | – | > 100 µM | – | > 100 µM | – | > 100 µM | – | > 100 µM |
| Nc1cc2nc3ccccc3oc-2cc1=O | 1.82 µM | 3.42 µM | 1.48 µM | 5.52 µM | 1.61 µM | 3.01 µM | 1.67 µM | 3.63 | 2.57 µM | 9.2 µM | 23.4 µM | > 100 µM | 19.7 µM | > 100 µM | 4.85 µM | > 57.2 µM | 2.45 µM | 6.75 µM | 1.73 µM | 12.3 µM |
| CC1(C)N=C(N)N=C(N)N1c1ccc(Cl)c(Cl)c1 | 3.56 µM | > 100 µM | > 27.3 µM | > 100 µM | 0.441 µM | > 100 µM | 32 µM | > 100 | – | > 100 µM | 10.9 µM | > 100 µM | 0.202 µM | > 100 µM | 0.0566 µM | > 100 µM | 0.201 µM | > 54 µM | 0.0887 µM | > 100 µM |
| NCCN1C(=O)c2ccccc2C1(O)c1ccc(Cl)cc1 (stereo unspecified) | – | 39.4 µM | – | 33.1 µM | – | 36 µM | – | 27.2 | – | > 100 µM | – | > 100 µM | – | > 100 µM | – | 57.1 µM | – | 43.2 µM | – | 29.6 µM |
| CCN(CC)c1ccc(/C=C/C=C(/C#N)C(N)=S)cc1 | 7.13 µM | > 100 µM | 38.5 µM | > 100 µM | 2.53 µM | 9.33 µM | 32 µM | > 100 | 5.27 µM | 30.9 µM | 6.27 µM | > 100 µM | 8.07 µM | > 100 µM | 30.2 µM | > 100 µM | 12.3 µM | 31.3 µM | 7.36 µM | > 100 µM |
| CC(=O)/C(=C\c1c(-c2ccccc2)[nH]c2ccccc12)S(=O)(=O)c1ccccc1 | 1.54 µM | 5.62 µM | 3.81 µM | > 93.8 µM | 0.513 µM | 2.15 µM | 1.98 µM | 9.19 | 1.92 µM | 5.21 µM | 3.53 µM | > 54.2 µM | 2.51 µM | 9.89 µM | 3.35 µM | 31.1 µM | 1.31 µM | 3.08 µM | 1.2 µM | 3.62 µM |
| O=c1cc(O)c2c(O)cc(O)cc2o1 | – | > 100 µM | – | > 100 µM | – | > 100 µM | – | > 100 | – | > 100 µM | – | > 100 µM | – | > 100 µM | – | > 100 µM | – | > 100 µM | – | > 100 µM |
| CC(=O)NC1=C(Sc2ccc(Cl)cc2)C(=O)c2ccccc2C1=O | – | 3.6 µM | – | 61.6 µM | – | – | – | 8 | – | 24.2 µM | – | 3.34 µM | – | 6.77 µM | – | 8.41 µM | – | 5.85 µM | – | 14.9 µM |
| CCCC#CCOC(=O)c1cc([N+](=O)[O-])cc([N+](=O)[O-])c1 | – | > 100 µM | – | > 100 µM | – | > 100 µM | – | 69.1 | – | – | – | – | – | > 100 µM | – | > 100 µM | – | > 100 µM | – | > 100 µM |
| C[n+]1c(/C=C/c2ccc(/C=N/NC(=O)c3ccc(C(=O)N/N=C/c4ccc(/C=C/c5cn6ccccc6[n+]5C)cc4)cc3)cc2)cn2ccccc21 | – | > 100 µM | – | > 100 µM | – | > 100 µM | – | > 100 | – | – | – | – | – | > 100 µM | – | > 100 µM | – | > 100 µM | – | > 100 µM |
| COc1ccc(-c2nnc(Nc3nc(O)c(C4=c5cc(F)ccc5=NC4=O)s3)o2)cc1 | 68.2 µM | > 100 µM | 69.1 µM | > 100 µM | – | – | 34.5 µM | > 100 | 46.3 µM | > 100 µM | 39.7 µM | > 100 µM | 54.4 µM | > 100 µM | 67.7 µM | > 100 µM | 80.9 µM | > 100 µM | 25.3 µM | 61.2 µM |
| COc1ccc2[nH]c(O)c(/C=c3/ccc4c(c3)N=C(c3ccc(F)cc3)N=4)c2c1 | 5.13 µM | > 100 µM | 2.73 µM | 9.4 µM | 2.66 µM | 11.1 µM | 2.58 µM | 6.32 | 2.5 µM | 6.33 µM | – | – | 2.07 µM | 5.32 µM | 3.76 µM | 22.7 µM | 3.83 µM | 23.7 µM | 3.65 µM | 30.8 µM |
| CC/C=C\C[C@H](O)C/C=C1/C(=O)C=C[C@@H]1C/C=C\CCCC(=O)NC | 1.71 µM | 3.93 µM | 5.24 µM | 55.2 µM | 1.76 µM | 4.75 µM | 1.94 µM | 4.65 | 2.15 µM | 4.95 µM | 3.04 µM | 19.5 µM | 2.4 µM | 10.2 µM | 2.94 µM | 12.9 µM | – | – | 1.3 µM | 4.26 µM |
| COc1ccc(C(=O)OC2C(OC3C(O)COC(O[C@H]4C[C@H]5[C@@H]6CC=C7C[C@@H](O)CC[C@]7(C)[C@H]6CC[C@]5(C)[C@H]4[C@H](C)C(=O)CCC(C)C)C3OC(C)=O)OCC(O)C2O)cc1 (stereo partly specified) | < 0.003 µM | 0.0194 µM | < 0.003 µM | 0.0215 µM | – | – | < 0.003 µM | 0.129 | – | – | 0.00892 µM | 19.6 µM | 1.02 µM | 30 µM | < 0.003 µM | 1.46 µM | < 0.003 µM | < 0.003 µM | < 0.003 µM | 3.86 µM |
| O=C1N[C@H]2[C@H](O)[C@H](O)[C@@H](O)[C@H](O)[C@@H]2c2cc3c(c(O)c21)OCO3 | 12.8 µM | – | 0.021 µM and 0.0403 µM | 0.0941 µM and 0.0978 µM | 0.229 µM and 0.0346 µM | – | 0.266 µM and 0.275 µM | – | 0.273 µM and 0.365 µM | 1.59 µM and 0.195 µM | 0.189 µM and 0.373 µM | – | 0.231 µM and 0.225 µM | 1.89 µM and 0.195 µM | 0.269 µM and 1.36 µM | – | – | – | 0.156 µM and 0.187 µM | – |
| COC(=O)[C@@H](OC)[C@@H]1Cc2cc3cc(OC4CC(OC5CC(O)C(O)C(C)O5)C(O)C(C)O4)c(C)c(O)c3c(O)c2C(=O)[C@H]1OC1CC(OC2CC(OC3CC(C)(O)C(O)C(C)O3)C(O)C(C)O2)C(O)C(C)O1 (stereo partly specified) | – | – | 0.0399 µM | 0.223 µM | 0.0382 µM | 0.157 µM | 0.034 µM | 0.0839 | 0.0384 µM | 0.125 µM | 0.0413 µM | 0.553 µM | 0.0393 µM | > 16.5 µM | 0.0455 µM | > 7.49 µM | 0.025 µM | 0.082 µM | 0.0385 µM | > 16.5 µM |
| C#CC(=O)OCC#CCOC(=O)C#C | – | 32.4 µM | – | 86.5 µM | – | 49.5 µM | – | 38 | – | 40.3 µM | – | – | – | 96 µM | – | > 100 µM | – | 28.8 µM | – | 35.6 µM |
| Cc1cc2c(cc1C)[n+](Cc1ccc3ccccc3n1)cn2Cc1ccc2ccccc2n1 | 0.387 µM | 1.58 µM | 1.94 µM | 5.48 µM | 0.586 µM | 2.42 µM | 0.783 µM | 2.56 | 1.59 µM | 4.01 µM | 1.24 µM | 4.09 µM | – | – | 1.27 µM | 3.02 µM | 0.899 µM | 2.53 µM | 0.926 µM | 2.2 µM |
| O=S(=O)(NCCO)c1cc[c]([Sb](=[O])([OH])[OH])cc1 | – | – | > 100 µM | > 100 µM | > 100 µM | > 100 µM | > 100 µM | > 100 | > 100 µM | > 100 µM | > 100 µM | > 100 µM | > 100 µM | > 100 µM | > 100 µM | > 100 µM | – | – | > 100 µM | > 100 µM |
| Cc1cc2c(=O)[nH]c(N)nc2nc1C | – | > 100 µM | – | > 100 µM | – | > 100 µM | – | > 100 | – | > 100 µM | – | > 100 µM | – | > 100 µM | – | > 100 µM | – | – | – | > 100 µM |
